Assay [1] deals with Body Torsion Reaction of Mice Caused by Acetic Acid. The assay can be described thus: Body torsion reaction of mice caused by acetic acid, intrarectal administration. Format: in vivo. Particulars: 7.5 mg/kg. The protocol: (§1) The purpose of the test is to observe effects of the suppository prepared by the clam extract composition of the invention on pains of mice caused by chemical and electric irritation, and the time of initiation and duration of the effect.
(§2) The clam extract composition of the invention was dissolved in 2 mol acetic acid and the pH value was adjusted to be 6.5~7.0. Then normal saline in an adequate amount was added.
(§3) Indomethacin: produced by Nantong Second Pharmaceutical Factory, with the lot number of 860321, which was formulated into a suspension with 2% of water-soluble starch paste.
After fasting for 12 hours, 60 mice were randomly allotted into 6 groups based on their body weight and sex. The drug was intrarectally administered in the dosage indicated in Table 3 and the volume of drug administered was 0.05 ml per mouse. 35 minutes later, 0.20 ml of 0.6% acetic acid was intraperitoneally injected to each mouse. The number of body torsion reactions (abdominal excavation, extension of trunk and hind limbs, and elevation of buttock) observed within 15 minutes after the injection of acetic acid was recorded.

The test system of assay [2] is Pain Threshold of Tail Roots of Mice Caused by Electric Irritation. The assay can be described thus: Pain threshold of tail roots of mice, electric irritation. Format: in vivo. Particulars: 7.5 mg/kg; for Pain threshold: before medication 0.22 ± 0.08, P < 0.05; for Increasing percentage of the pain threshold: intrarectal, P < 0.01 vs control. The protocol: as §1, §2, §3
An electric stimulator of Model NEN-7103, and an isolator of Model SS-102J, made in Japan.
After fasting for 12 hours, 50 mice were randomly allotted into 5 groups based on their body weight and sex. The root of mouse's tail was stimulated with electric current of square wave (10 ms of pulse width and 1 Hz of the frequency). The pain threshold was determined as the electric intensity which just makes the mouse screaming. The drug was intrarectally administered with the volume of 0.05 ml per mouse. […]

Assay [3] deals with Body Torsion Reaction of Mice Caused by Acetic Acid. The assay can be described thus: Body torsion reaction of mice caused by acetic acid, oral administration. Format: in vivo, Kunming strain mice. Particulars: 0.03 (head mg/kg; text 30 mg/kg). The protocol:
Clam extract composition of the invention was dissolved in 2N acetic acid and the pH value was adjusted to be 6.5~7.0. The normal saline in an adequate amount was added to formulate a solution. Indomethacin: produced by Shijiazhuang Pharmaceutical Factory, with the lot number of 009011021, which was formulated into a suspension with 2% of starch paste.
Kunming strain mice, male and female, with body weight of 20±2 g, provided by the Department of Animals of Beijing Medical University.
Fifty mice were randomly allotted into 5 groups based on their body weight and sex. In the control group, 0.2 ml/kg body weight of normal saline was administered per oral; while in the positive group, 30 mg/kg of indomethacin was administered per oral. […] 90 minutes later, 0.2 ml of 0.6% acetic acid per mouse was intraperitoneally injected and the number of body torsion reactions (abdominal excavation, extension of trunk and hind limbs, and elevation of buttock) of the mouse observed within 15 minutes after the injection of acetic acid was recorded.

In the case of `COc1ccc2c(c1)c(CC(=O)O)c(C)n2C(=O)c1ccc(Cl)cc1` [Indomethacin], the Inhibition rate is on record as 93.1% in assay [1] and 93.7% in assay [3]. In addition, the “Number of body torsions” value in assay [1] (control 39.3 ± 14.4) came to 2.7 ± 4.1 n; in assay [3] (control 44.1 ± 12.8, P < 0.01) it was 2.8 ± 4.8 n. The Pain threshold is given as 0.32 ± 0.06 mA in assay [2] (20 min, control 0.25 ± 0.08); 0.41 ± 0.12 mA in assay [2] (40 min, control 0.28 ± 0.11); 0.44 ± 0.15 mA in assay [2] (60 min, control 0.26 ± 0.13); 0.41 ± 0.13 mA in assay [2] (90 min, control 0.26 ± 0.13); 0.38 ± 0.13 mA in assay [2] (120 min, control 0.25 ± 0.11). The “Increasing percentage of the pain threshold” value in assay [2] (20 min) turned out to be 37.4 ± 18.4 percentage; in assay [2] (40 min), 71.4 ± 39.4 percentage; in assay [2] (60 min), 86.3 ± 45.9 percentage; in assay [2] (90 min), 72.5 ± 59.1 percentage; in assay [2] (120 min), 69.6 ± 62.3 percentage.

(Values after patent US5702728A, “Clam extract preparation, the method of preparation and use thereof” (priority 1993, dated 1997).)
